Assay results published in ChEMBL document CHEMBL6074711, “Design, Synthesis, and Activity Evaluation of C-23-Modified 5-O-Mycaminosyltylonolide Derivatives” (ACS Med Chem Lett, 2024).
In brackets after ≈: the same amount, converted by molar mass.

Tests used:
Assay type in all cases: functional
Conditions in all cases: time 16-20 hrs
[1] = system: Staphylococcus aureus; assay: Antibacterial activity against Staphylococcus aureus ATCC25923 incubated for 16 to 20 hrs by broth microdilution method
[2] = system: Enterococcus faecalis; assay: Antibacterial activity against Enterococcus faecalis ATCC29212 incubated for 16 to 20 hrs by broth microdilution method
[3] = system: Escherichia coli; assay: Antibacterial activity against Escherichia coli ATCC25922 incubated for 16 to 20 hrs by broth microdilution method
[4] = system: Stenotrophomonas maltophilia; assay: Antibacterial activity against Stenotrophomonas maltophilia ATCC17808 incubated for 16 to 20 hrs by broth microdilution method

| SMILES | MIC [1] | MIC [2] | MIC [3] | MIC [4] |
| --- | --- | --- | --- | --- |
| CC[C@H]1OC(=O)C[C@@H](O)[C@H](C)[C@@H](O[C@@H]2O[C@H](C)[C@@H](O)[C@H](N(C)C)[C@H]2O)[C@@H](CCN(C)Cc2cn(-c3cnc4ccccc4c3)nn2)C[C@@H](C)C(=O)/C=C/C(C)=C/[C@@H]1CNc1ccc2ccccc2c1 | 4 µg/mL (≈ 4.23 µM) | 8 µg/mL (≈ 8.45 µM) | 8 µg/mL (≈ 8.45 µM) | 4 µg/mL (≈ 4.23 µM) |
| CC[C@H]1OC(=O)C[C@@H](O)[C@H](C)[C@@H](O[C@@H]2O[C@H](C)[C@@H](O)[C@H](N(C)C)[C@H]2O)[C@@H](CCN(Cc2cn(-c3cnc4ccccc4c3)nn2)c2ccccc2)C[C@@H](C)C(=O)/C=C/C(C)=C/[C@@H]1CNCc1ccccc1 | 4 µg/mL (≈ 4.11 µM) |  | 8 µg/mL (≈ 8.23 µM) |  |
| CC[C@H]1OC(=O)C[C@@H](O)[C@H](C)[C@@H](O[C@@H]2O[C@H](C)[C@@H](O)[C@H](N(C)C)[C@H]2O)[C@@H](CCN(C)Cc2cn(-c3cnc4ccccc4c3)nn2)C[C@@H](C)C(=O)/C=C/C(C)=C/[C@@H]1CNCc1ccc(Cl)cc1 | 2 µg/mL (≈ 2.12 µM) | 2 µg/mL (≈ 2.12 µM) | 1 µg/mL (≈ 1.06 µM) | 4 µg/mL (≈ 4.23 µM) |
| CC[C@H]1OC(=O)C[C@@H](O)[C@H](C)[C@@H](O[C@@H]2O[C@H](C)[C@@H](O)[C@H](N(C)C)[C@H]2O)[C@@H](CCNCc2cn(-c3cnc4ccccc4c3)nn2)C[C@@H](C)C(=O)/C=C/C(C)=C/[C@@H]1CNCc1ccccc1 | 2 µg/mL (≈ 2.23 µM) | 2 µg/mL (≈ 2.23 µM) | 1 µg/mL (≈ 1.12 µM) | 1 µg/mL (≈ 1.12 µM) |
| CC[C@H]1OC(=O)C[C@@H](O)[C@H](C)[C@@H](O[C@@H]2O[C@H](C)[C@@H](O)[C@H](N(C)C)[C@H]2O)[C@@H](CCNCc2cn(-c3cnc4ccccc4c3)nn2)C[C@@H](C)C(=O)/C=C/C(C)=C/[C@@H]1CN1CCCCCCC1 | 0.5 µg/mL (≈ 0.554 µM) |  | 2 µg/mL (≈ 2.22 µM) |  |
| CCCN(C)C[C@H]1/C=C(C)/C=C/C(=O)[C@H](C)C[C@H](CCN(Cc2cn(-c3cnc4ccccc4c3)nn2)c2ccccc2)[C@H](O[C@@H]2O[C@H](C)[C@@H](O)[C@H](N(C)C)[C@H]2O)[C@@H](C)[C@H](O)CC(=O)O[C@@H]1CC | 0.5 µg/mL (≈ 0.533 µM) |  | 4 µg/mL (≈ 4.26 µM) |  |
| CCCNC[C@H]1/C=C(C)/C=C/C(=O)[C@H](C)C[C@H](CCN(C)Cc2cn(-c3cnc4ccccc4c3)nn2)[C@H](O[C@@H]2O[C@H](C)[C@@H](O)[C@H](N(C)C)[C@H]2O)[C@@H](C)[C@H](O)CC(=O)O[C@@H]1CC | 2 µg/mL (≈ 2.32 µM) |  | 8 µg/mL (≈ 9.28 µM) |  |
| CC[C@H]1OC(=O)C[C@@H](O)[C@H](C)[C@@H](O[C@@H]2O[C@H](C)[C@@H](O)[C@H](N(C)C)[C@H]2O)[C@@H](CCNCc2cn(-c3cnc4ccccc4c3)nn2)C[C@@H](C)C(=O)/C=C/C(C)=C/[C@@H]1CI | 2 µg/mL (≈ 2.18 µM) |  | 8 µg/mL (≈ 8.73 µM) |  |
| CC[C@H]1OC(=O)C[C@@H](O)[C@H](C)[C@@H](O[C@@H]2O[C@H](C)[C@@H](O)[C@H](N(C)C)[C@H]2O)[C@@H](CCN(C)Cc2cn(-c3cnc4ccccc4c3)nn2)C[C@@H](C)C(=O)/C=C/C(C)=C/[C@@H]1CNCc1ccc(F)cc1 | 2 µg/mL (≈ 2.15 µM) | 8 µg/mL (≈ 8.62 µM) | 8 µg/mL (≈ 8.62 µM) | 4 µg/mL (≈ 4.31 µM) |
| CC[C@H]1OC(=O)C[C@@H](O)[C@H](C)[C@@H](O[C@@H]2O[C@H](C)[C@@H](O)[C@H](N(C)C)[C@H]2O)[C@@H](CCN2C[C@H](C)C[C@H](C)C2)C[C@@H](C)C(=O)/C=C/C(C)=C/[C@@H]1CO[C@@H]1O[C@H](C)[C@@H](O)[C@@H](OC)[C@H]1OC [TILMICOSIN] | 1 µg/mL (≈ 1.15 µM) | 1 µg/mL (≈ 1.15 µM) | > 32 µg/mL | > 32 µg/mL |
| CC[C@H]1OC(=O)C[C@@H](O)[C@H](C)[C@@H](O[C@@H]2O[C@H](C)[C@@H](O)[C@H](N(C)C)[C@H]2O)[C@@H](CCN(Cc2cn(-c3cnc4ccccc4c3)nn2)c2ccccc2)C[C@@H](C)C(=O)/C=C/C(C)=C/[C@@H]1CN(C)CC | 0.5 µg/mL (≈ 0.541 µM) |  | 2 µg/mL (≈ 2.16 µM) |  |
| CC[C@H]1OC(=O)C[C@@H](O)[C@H](C)[C@@H](O[C@@H]2O[C@H](C)[C@@H](O)[C@H](N(C)C)[C@H]2O)[C@@H](CCNCc2cn(-c3cnc4ccccc4c3)nn2)C[C@@H](C)C(=O)/C=C/C(C)=C/[C@@H]1CN(C)C(C)C | 0.5 µg/mL (≈ 0.58 µM) |  | 2 µg/mL (≈ 2.32 µM) |  |
| CC[C@H]1OC(=O)C[C@@H](O)[C@H](C)[C@@H](O[C@@H]2O[C@H](C)[C@@H](O)[C@H](N(C)C)[C@H]2O)[C@@H](CCN(C)Cc2cn(-c3cnc4ccccc4c3)nn2)C[C@@H](C)C(=O)/C=C/C(C)=C/[C@@H]1CN(CC)Cc1ccccc1 | 2 µg/mL (≈ 2.13 µM) | 4 µg/mL (≈ 4.26 µM) | 8 µg/mL (≈ 8.53 µM) | 2 µg/mL (≈ 2.13 µM) |
| CCCNC[C@H]1/C=C(C)/C=C/C(=O)[C@H](C)C[C@H](CCN(Cc2cn(-c3cnc4ccccc4c3)nn2)c2ccccc2)[C@H](O[C@@H]2O[C@H](C)[C@@H](O)[C@H](N(C)C)[C@H]2O)[C@@H](C)[C@H](O)CC(=O)O[C@@H]1CC | 2 µg/mL (≈ 2.16 µM) |  | 8 µg/mL (≈ 8.66 µM) |  |
| CC[C@H]1OC(=O)C[C@@H](O)[C@H](C)[C@@H](O[C@@H]2O[C@H](C)[C@@H](O)[C@H](N(C)C)[C@H]2O)[C@@H](CCNCc2cn(-c3cnc4ccccc4c3)nn2)C[C@@H](C)C(=O)/C=C/C(C)=C/[C@@H]1CN(C)C | 0.5 µg/mL (≈ 0.599 µM) |  | 2 µg/mL (≈ 2.4 µM) |  |
| CC[C@H]1OC(=O)C[C@@H](O)[C@H](C)[C@@H](O[C@@H]2O[C@H](C)[C@@H](O)[C@H](N(C)C)[C@H]2O)[C@@H](CCN(Cc2cn(-c3cnc4ccccc4c3)nn2)c2ccccc2)C[C@@H](C)C(=O)/C=C/C(C)=C/[C@@H]1CN(C)C(C)C | 0.5 µg/mL (≈ 0.533 µM) |  | 8 µg/mL (≈ 8.53 µM) |  |

| SMILES | MIC [1] | MIC [2] | MIC [3] | MIC [4] |
| --- | --- | --- | --- | --- |
| CC[C@H]1OC(=O)C[C@@H](O)[C@H](C)[C@@H](O[C@@H]2O[C@H](C)[C@@H](O)[C@H](N(C)C)[C@H]2O)[C@@H](CCN(Cc2cn(-c3cnc4ccccc4c3)nn2)c2ccccc2)C[C@@H](C)C(=O)/C=C/C(C)=C/[C@@H]1CN(C)C1CCCCC1 | 0.5 µg/mL (≈ 0.511 µM) |  | 4 µg/mL (≈ 4.09 µM) |  |
| CCCCN(CCCC)C[C@H]1/C=C(C)/C=C/C(=O)[C@H](C)C[C@H](CCNCc2cn(-c3cnc4ccccc4c3)nn2)[C@H](O[C@@H]2O[C@H](C)[C@@H](O)[C@H](N(C)C)[C@H]2O)[C@@H](C)[C@H](O)CC(=O)O[C@@H]1CC | 2 µg/mL (≈ 2.18 µM) |  | 8 µg/mL (≈ 8.71 µM) |  |
| CCCCN(CCCC)C[C@H]1/C=C(C)/C=C/C(=O)[C@H](C)C[C@H](CCN(Cc2cn(-c3cnc4ccccc4c3)nn2)c2ccccc2)[C@H](O[C@@H]2O[C@H](C)[C@@H](O)[C@H](N(C)C)[C@H]2O)[C@@H](C)[C@H](O)CC(=O)O[C@@H]1CC | 1 µg/mL (≈ 1.01 µM) |  | 32 µg/mL (≈ 32.2 µM) |  |
| CCCNC[C@H]1/C=C(C)/C=C/C(=O)[C@H](C)C[C@H](CCNCc2cn(-c3cnc4ccccc4c3)nn2)[C@H](O[C@@H]2O[C@H](C)[C@@H](O)[C@H](N(C)C)[C@H]2O)[C@@H](C)[C@H](O)CC(=O)O[C@@H]1CC | 1 µg/mL (≈ 1.18 µM) |  | 8 µg/mL (≈ 9.43 µM) |  |
| CC[C@H]1OC(=O)C[C@@H](O)[C@H](C)[C@@H](O[C@@H]2O[C@H](C)[C@@H](O)[C@H](N(C)C)[C@H]2O)[C@@H](CCN(C)Cc2cn(-c3cnc4ccccc4c3)nn2)C[C@@H](C)C(=O)/C=C/C(C)=C/[C@@H]1CI | 2 µg/mL (≈ 2.15 µM) |  | 16 µg/mL (≈ 17.2 µM) |  |
| CCCN(C)C[C@H]1/C=C(C)/C=C/C(=O)[C@H](C)C[C@H](CCNCc2cn(-c3cnc4ccccc4c3)nn2)[C@H](O[C@@H]2O[C@H](C)[C@@H](O)[C@H](N(C)C)[C@H]2O)[C@@H](C)[C@H](O)CC(=O)O[C@@H]1CC | 0.5 µg/mL (≈ 0.58 µM) |  | 4 µg/mL (≈ 4.64 µM) |  |
| CC[C@H]1OC(=O)C[C@@H](O)[C@H](C)[C@@H](O[C@@H]2O[C@H](C)[C@@H](O)[C@H](N(C)C)[C@H]2O)[C@@H](CCN(C)Cc2cn(-c3cnc4ccccc4c3)nn2)C[C@@H](C)C(=O)/C=C/C(C)=C/[C@@H]1CN(C)C1CCCCC1 | 1 µg/mL (≈ 1.09 µM) |  | 4 µg/mL (≈ 4.37 µM) |  |
| CC[C@H]1OC(=O)C[C@@H](O)[C@H](C)[C@@H](O[C@@H]2O[C@H](C)[C@@H](O)[C@H](N(C)C)[C@H]2O)[C@@H](CCNCc2cn(-c3cnc4ccccc4c3)nn2)C[C@@H](C)C(=O)/C=C/C(C)=C/[C@@H]1CN1CCCCC1 | 0.5 µg/mL (≈ 0.572 µM) |  | 2 µg/mL (≈ 2.29 µM) |  |
| CC[C@H]1OC(=O)C[C@@H](O)[C@H](C)[C@@H](O[C@@H]2O[C@H](C)[C@@H](O)[C@H](N(C)C)[C@H]2O)[C@@H](CCNCc2cn(-c3cnc4ccccc4c3)nn2)C[C@@H](C)C(=O)/C=C/C(C)=C/[C@@H]1CN1CCCCCC1 | 0.5 µg/mL (≈ 0.563 µM) |  | 1 µg/mL (≈ 1.13 µM) |  |
| CC[C@H]1OC(=O)C[C@@H](O)[C@H](C)[C@@H](O[C@@H]2O[C@H](C)[C@@H](O)[C@H](N(C)C)[C@H]2O)[C@@H](CCNCc2cn(-c3cnc4ccccc4c3)nn2)C[C@@H](C)C(=O)/C=C/C(C)=C/[C@@H]1CN(C)CC | 0.5 µg/mL (≈ 0.59 µM) |  | 4 µg/mL (≈ 4.72 µM) |  |
| CC[C@H]1OC(=O)C[C@@H](O)[C@H](C)[C@@H](O[C@@H]2O[C@H](C)[C@@H](O)[C@H](N(C)C)[C@H]2O)[C@@H](CCN(Cc2cn(-c3cnc4ccccc4c3)nn2)c2ccccc2)C[C@@H](C)C(=O)/C=C/C(C)=C/[C@@H]1CI | 2 µg/mL (≈ 2.01 µM) |  | 32 µg/mL (≈ 32.2 µM) |  |
| CC[C@H]1OC(=O)C[C@@H](O)[C@H](C)[C@@H](O[C@@H]2O[C@H](C)[C@@H](O)[C@H](N(C)C)[C@H]2O)[C@@H](CCN(C)Cc2cn(-c3cnc4ccccc4c3)nn2)C[C@@H](C)C(=O)/C=C/C(C)=C/[C@@H]1CO | 1 µg/mL (≈ 1.22 µM) |  | 4 µg/mL (≈ 4.87 µM) |  |
| CC[C@H]1OC(=O)C[C@@H](O)[C@H](C)[C@@H](O[C@@H]2O[C@H](C)[C@@H](O)[C@H](N(C)C)[C@H]2O)[C@@H](CCNCc2cn(-c3cnc4ccccc4c3)nn2)C[C@@H](C)C(=O)/C=C/C(C)=C/[C@@H]1CO | 0.25 µg/mL (≈ 0.31 µM) |  | 4 µg/mL (≈ 4.96 µM) |  |
| CC[C@H]1OC(=O)C[C@@H](O)[C@H](C)[C@@H](O[C@@H]2O[C@H](C)[C@@H](O)[C@H](N(C)C)[C@H]2O)[C@@H](CCNCc2cn(-c3cnc4ccccc4c3)nn2)C[C@@H](C)C(=O)/C=C/C(C)=C/[C@@H]1CN(C)C1CCCCC1 | 1 µg/mL (≈ 1.11 µM) |  | 2 µg/mL (≈ 2.22 µM) |  |
| CC[C@H]1OC(=O)C[C@@H](O)[C@H](C)[C@@H](O[C@@H]2O[C@H](C)[C@@H](O)[C@H](N(C)C)[C@H]2O)[C@@H](CCNCc2cn(-c3cnc4ccccc4c3)nn2)C[C@@H](C)C(=O)/C=C/C(C)=C/[C@@H]1CN(CC)CC | 0.5 µg/mL (≈ 0.58 µM) |  | 2 µg/mL (≈ 2.32 µM) |  |
